Experiments:
[1] = target: T1, Recombinant human FAP (Homo sapiens, UniProt Q12884); assay: FAP FRET assay, FGF21-sequence FRET peptide substrate; format: biochemical; details: FRET peptide with human FGF21 sequence, 6 μM, 37° C.
T1 construct: purchased R&D systems
T1 sequence (Q12884 1-760): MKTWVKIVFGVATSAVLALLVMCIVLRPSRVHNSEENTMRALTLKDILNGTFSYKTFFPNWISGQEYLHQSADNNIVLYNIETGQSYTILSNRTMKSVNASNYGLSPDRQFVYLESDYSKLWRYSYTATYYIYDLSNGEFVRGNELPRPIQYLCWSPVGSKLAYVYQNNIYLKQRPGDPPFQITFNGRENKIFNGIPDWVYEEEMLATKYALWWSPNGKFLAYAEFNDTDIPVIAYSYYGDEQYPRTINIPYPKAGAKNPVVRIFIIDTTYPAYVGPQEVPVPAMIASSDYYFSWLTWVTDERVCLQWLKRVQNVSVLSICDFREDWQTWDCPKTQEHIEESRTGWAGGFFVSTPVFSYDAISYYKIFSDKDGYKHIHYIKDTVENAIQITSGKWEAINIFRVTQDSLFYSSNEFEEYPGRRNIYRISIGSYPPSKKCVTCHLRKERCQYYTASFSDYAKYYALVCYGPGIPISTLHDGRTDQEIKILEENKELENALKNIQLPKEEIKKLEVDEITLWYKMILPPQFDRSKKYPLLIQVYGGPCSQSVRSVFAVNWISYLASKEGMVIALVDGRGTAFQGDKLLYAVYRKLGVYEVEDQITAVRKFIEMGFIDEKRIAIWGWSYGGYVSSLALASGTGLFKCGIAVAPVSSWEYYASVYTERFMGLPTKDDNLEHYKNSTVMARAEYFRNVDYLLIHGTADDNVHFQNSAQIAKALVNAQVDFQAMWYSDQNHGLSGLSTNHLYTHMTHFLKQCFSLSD
Procedure, shortened: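 FRET peptide bearing human FGF21 sequence (6 μM final) cleaved by 10 ng recombinant human FAP at 37° C in HEPES pH 7.2 buffer with NaCl, BSA and EDTA, DMSO up to 0.1%. Signal-rate decrease versus uninhibited control fitted to a four-variable logistic model for IC50.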

[2] = target: T2, recombinant human DPP9 (Homo sapiens, UniProt Q86TI2); assay: DPP9 inhibition, fluorogenic substrate H-Gly-Pro-AMC; format: biochemical; details: recombinant human DPP9
T2 construct: purchased R&D Systems
Procedure, shortened: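 Inhibitors are titrated in an 8-point series into the enzyme's assay buffer (DMSO no more than 0.5%). Substrate cleavage at 25 °C is followed by fluorescence, excitation 380 nm and emission 460 nm. IC50 values come from a four-variable logistic model.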

T2 sequence (Q86TI2 whole entry): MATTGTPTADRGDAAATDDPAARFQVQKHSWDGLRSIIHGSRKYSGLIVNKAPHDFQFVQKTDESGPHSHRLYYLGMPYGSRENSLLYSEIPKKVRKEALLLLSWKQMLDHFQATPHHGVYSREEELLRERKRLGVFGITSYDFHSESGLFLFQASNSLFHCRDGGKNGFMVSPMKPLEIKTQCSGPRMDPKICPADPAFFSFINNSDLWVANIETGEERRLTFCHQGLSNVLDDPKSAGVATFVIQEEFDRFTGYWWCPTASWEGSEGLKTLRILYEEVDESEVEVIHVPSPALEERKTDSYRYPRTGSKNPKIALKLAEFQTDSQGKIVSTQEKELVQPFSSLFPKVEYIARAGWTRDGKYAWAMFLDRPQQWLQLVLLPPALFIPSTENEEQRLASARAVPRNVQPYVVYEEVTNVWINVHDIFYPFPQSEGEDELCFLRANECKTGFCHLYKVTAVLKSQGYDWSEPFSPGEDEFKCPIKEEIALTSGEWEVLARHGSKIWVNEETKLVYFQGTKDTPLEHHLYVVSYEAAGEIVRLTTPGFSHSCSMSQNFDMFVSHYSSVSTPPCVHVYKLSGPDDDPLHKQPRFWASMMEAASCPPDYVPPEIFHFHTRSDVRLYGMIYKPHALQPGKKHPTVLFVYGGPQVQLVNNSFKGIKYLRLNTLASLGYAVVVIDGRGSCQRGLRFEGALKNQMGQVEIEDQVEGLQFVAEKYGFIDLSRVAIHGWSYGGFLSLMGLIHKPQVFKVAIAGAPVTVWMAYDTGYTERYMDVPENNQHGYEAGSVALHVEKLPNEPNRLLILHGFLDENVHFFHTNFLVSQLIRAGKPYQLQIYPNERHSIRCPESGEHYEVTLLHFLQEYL

Row | IC50 [1] | IC50 [2] | Compound
1 | 3 nM | 7480 nM | N#C[C@@H]1C[C@H](F)CN1C(=O)CN1CC[C@H](Nc2cccc3ncccc23)C1 [Example 228, (2S,4S)-4-fluoro-1-[2-[(3S)-3-(5-quinolylamino)pyrrolidin-1-yl]acetyl]pyrrolidine-2-carbonitrile]
2 | 1.8 nM | 29000 nM | N#Cc1cnc2cccc(N[C@H]3CCN(CC(=O)N4CCC[C@H]4C#N)C3)c2c1 [Example 232, 5-[[(3S)-1-[2-oxo-2-[(2S)-2-cyanopyrrolidin-1-yl]ethyl]pyrrolidin-3-yl]amino]quinoline-3-carbonitrile]
3 | 0.7 nM | 21200 nM | COc1cnc2cccc(N[C@H]3CCN(CC(=O)N4CCC[C@H]4C#N)C3)c2c1 [Example 233, (2S)-1-[2-[(3S)-3-[(3-methoxy-5-quinolyl)amino]pyrrolidin-1-yl]acetyl]pyrrolidine-2-carbonitrile]
4 | 5.6 nM | 31900 nM | N#C[C@@H]1CCCN1C(=O)CN1CC[C@H](Nc2ccc(F)c3ncccc23)C1 [Example 244, (2S)-1-[2-[(3S)-3-[(8-fluoro-5-quinolyl)amino]pyrrolidin-1-yl]acetyl]pyrrolidine-2-carbonitrile]
5 | 1.2 nM | > 100000 nM | N#C[C@@H]1CCCN1C(=O)CN1CC[C@H](Nc2ccc(C(F)(F)F)c3ncccc23)C1 [Example 245, (2S)-1-[2-[(3S)-3-[[8-(trifluoromethyl)-5-quinolyl]amino]pyrrolidin-1-yl]acetyl]pyrrolidine-2-carbonitrile]
6 | 1 nM | 7360 nM | N#C[C@@H]1C[C@H](F)CN1C(=O)CN1CC[C@H](Nc2cccc3ncc(F)cc23)C1 [Example 255, (2S,4S)-4-fluoro-1-[2-[(3S)-3-[(3-fluoro-5-quinolyl)amino]pyrrolidin-1-yl]acetyl]pyrrolidine-2-carbonitrile]
7 | 1.9 nM | 3830 nM | COc1ccc(N[C@H]2CCN(CC(=O)N3C[C@@H](F)C[C@H]3C#N)C2)c2cccnc12 [Example 263, (2S,4S)-4-fluoro-1-[2-[(3S)-3-[(8-methoxy-5-quinolyl)amino]pyrrolidin-1-yl]acetyl]pyrrolidine-2-carbonitrile]
8 | 1.2 nM | 4380 nM | N#C[C@@H]1C[C@H](F)CN1C(=O)CN1CC[C@H](Nc2ccc(OC(F)(F)F)c3ncccc23)C1 [Example 266, (2S,4S)-4-fluoro-1-[2-[(3S)-3-[[8-(trifluoromethoxy)-5-quinolyl]amino]pyrrolidin-1-yl]acetyl]pyrrolidine-2-carbonitrile]
9 | 0.7 nM | 877 nM | N#C[C@@H]1C[C@H](F)CN1C(=O)CN1CC[C@H](Nc2ccc(OCc3ccccc3)c3ncccc23)C1 [Example 268, (2S,4S)-4-fluoro-1-[2-[(3S)-3-[(8-benzyloxy-5-quinolyl)amino]pyrrolidin-1-yl]acetyl]pyrrolidine-2-carbonitrile]
10 | 2.6 nM | 1090 nM | N#C[C@@H]1C[C@H](F)CN1C(=O)CN1CCC(Nc2ccc(C(F)(F)F)c3ncccc23)CC1 [Example 334, (2S,4S)-4-fluoro-1-[2-[4-[[8-(trifluoromethyl)-5-quinolyl]amino]-1-piperidyl]acetyl]pyrrolidine-2-carbonitrile]
11 | 5.7 nM | 2960 nM | N#C[C@@H]1C[C@H](F)CN1C(=O)CN1CCC(Nc2ccc(OC(F)(F)F)c3ncccc23)CC1 [Example 347, (2S,4S)-4-fluoro-1-[2-[4-[[8-(trifluoromethoxy)-5-quinolyl]amino]-1-piperidyl]acetyl]pyrrolidine-2-carbonitrile]
12 | 3.9 nM | 6200 nM | COc1cnc2cccc(NC3CCN(CC(=O)N4C[C@@H](F)C[C@H]4C#N)CC3)c2c1 [Example 348, (2S,4S)-4-fluoro-1-[2-[4-[(3-methoxy-5-quinolyl)amino]-1-piperidyl]acetyl]pyrrolidine-2-carbonitrile]
13 | 4 nM | 5060 nM | N#C[C@@H]1C[C@H](F)CN1C(=O)CN1CCC(Nc2cccc3ncc(F)cc23)CC1 [Example 349, (2S,4S)-4-fluoro-1-[2-[4-[(3-fluoro-5-quinolyl)amino]-1-piperidyl]acetyl]pyrrolidine-2-carbonitrile]
14 | 2.5 nM | 9770 nM | N#C[C@@H]1C[C@H](F)CN1C(=O)CN1CCC(Nc2cccc3cnc(Cl)cc23)CC1 [Example 352, (2S,4S)-1-[2-[4-[(3-chloro-5-isoquinolyl)amino]-1-piperidyl]acetyl]-4-fluoro-pyrrolidine-2-carbonitrile]
15 | 2.5 nM | 9860 nM | COc1cc2c(NC3CCN(CC(=O)N4C[C@@H](F)C[C@H]4C#N)CC3)cccc2cn1 [Example 355, (2S,4S)-4-fluoro-1-[2-[4-[(3-methoxy-5-isoquinolyl)amino]-1-piperidyl]acetyl]pyrrolidine-2-carbonitrile]
16 | 1.5 nM | 17700 nM | Cc1ccc2nccc(OC3CCN(CC(=O)N4C[C@@H](F)C[C@H]4C#N)CC3)c2c1 [Example 410, (2S,4S)-4-fluoro-1-[2-[4-[(6-methyl-4-quinolyl)oxy]-1-piperidyl]acetyl]pyrrolidine-2-carbonitrile]

Row | Compound | IC50 [1] | IC50 [2]
17 | N#Cc1ccc(N[C@H]2CCN(CC(=O)N3CCC[C@H]3C#N)C2)c2cccnc12 [Example 247, 5-[[(3S)-1-[2-oxo-2-[(2S)-2-cyanopyrrolidin-1-yl]ethyl]pyrrolidin-3-yl]amino]quinoline-8-carbonitrile] | 2 nM | > 100000 nM

Source: patent US11655235B2, “Pyrrolidine and piperidine compounds” (YUHAN CORPORATION, priority 2019, dated 2023)
